In US10231954B2, “Neurodegenerative therapies” (LYTIX BIOPHARMA AS, priority 2014, dated 2019):

Key:
Assay type in all cases: biochemical
Conditions in all cases: 100 micromolar inhibitor concentration, 100 is no change
[1] = target: T1, EPH-B3 (Homo sapiens, UniProt P54753); test: Kinase profiling EPH-B3
T1 sequence (P54753 34-998): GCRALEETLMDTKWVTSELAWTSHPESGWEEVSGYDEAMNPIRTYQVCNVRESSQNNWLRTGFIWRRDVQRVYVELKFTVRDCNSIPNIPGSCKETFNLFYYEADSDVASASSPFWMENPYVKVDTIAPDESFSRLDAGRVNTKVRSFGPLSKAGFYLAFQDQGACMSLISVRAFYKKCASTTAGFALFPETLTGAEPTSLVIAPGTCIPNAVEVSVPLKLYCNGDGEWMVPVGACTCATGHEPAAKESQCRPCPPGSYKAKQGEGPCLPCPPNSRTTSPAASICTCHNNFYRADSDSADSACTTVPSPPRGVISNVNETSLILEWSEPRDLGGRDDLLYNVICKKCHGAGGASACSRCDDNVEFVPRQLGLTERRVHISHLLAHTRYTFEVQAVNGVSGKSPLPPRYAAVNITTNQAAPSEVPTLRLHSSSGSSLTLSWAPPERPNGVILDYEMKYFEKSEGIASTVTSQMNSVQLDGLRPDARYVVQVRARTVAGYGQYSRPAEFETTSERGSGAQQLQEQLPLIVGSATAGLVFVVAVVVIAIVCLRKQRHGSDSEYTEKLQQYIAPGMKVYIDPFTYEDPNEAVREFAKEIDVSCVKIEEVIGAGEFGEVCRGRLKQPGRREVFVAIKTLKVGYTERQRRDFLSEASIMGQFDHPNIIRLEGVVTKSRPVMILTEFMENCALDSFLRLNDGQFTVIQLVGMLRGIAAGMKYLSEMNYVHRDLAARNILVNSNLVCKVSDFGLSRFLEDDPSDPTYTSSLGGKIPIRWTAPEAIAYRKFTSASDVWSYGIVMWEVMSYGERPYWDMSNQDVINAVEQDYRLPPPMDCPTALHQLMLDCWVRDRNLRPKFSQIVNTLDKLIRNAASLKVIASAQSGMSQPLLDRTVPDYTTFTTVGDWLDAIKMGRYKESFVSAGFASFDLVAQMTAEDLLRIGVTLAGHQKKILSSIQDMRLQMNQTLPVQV
From the text: (§1) Any value less that 25 is considered to be highly significant inhibition.

[2] = target: FGF-R1 (Homo sapiens, UniProt P11362); test: Kinase profiling FGF-R1
From the text: as §1

[3] = target: T2, BRSK2 (Homo sapiens, UniProt Q8IWQ3); test: Kinase profiling BRSK2
T2 sequence (Q8IWQ3 1-736): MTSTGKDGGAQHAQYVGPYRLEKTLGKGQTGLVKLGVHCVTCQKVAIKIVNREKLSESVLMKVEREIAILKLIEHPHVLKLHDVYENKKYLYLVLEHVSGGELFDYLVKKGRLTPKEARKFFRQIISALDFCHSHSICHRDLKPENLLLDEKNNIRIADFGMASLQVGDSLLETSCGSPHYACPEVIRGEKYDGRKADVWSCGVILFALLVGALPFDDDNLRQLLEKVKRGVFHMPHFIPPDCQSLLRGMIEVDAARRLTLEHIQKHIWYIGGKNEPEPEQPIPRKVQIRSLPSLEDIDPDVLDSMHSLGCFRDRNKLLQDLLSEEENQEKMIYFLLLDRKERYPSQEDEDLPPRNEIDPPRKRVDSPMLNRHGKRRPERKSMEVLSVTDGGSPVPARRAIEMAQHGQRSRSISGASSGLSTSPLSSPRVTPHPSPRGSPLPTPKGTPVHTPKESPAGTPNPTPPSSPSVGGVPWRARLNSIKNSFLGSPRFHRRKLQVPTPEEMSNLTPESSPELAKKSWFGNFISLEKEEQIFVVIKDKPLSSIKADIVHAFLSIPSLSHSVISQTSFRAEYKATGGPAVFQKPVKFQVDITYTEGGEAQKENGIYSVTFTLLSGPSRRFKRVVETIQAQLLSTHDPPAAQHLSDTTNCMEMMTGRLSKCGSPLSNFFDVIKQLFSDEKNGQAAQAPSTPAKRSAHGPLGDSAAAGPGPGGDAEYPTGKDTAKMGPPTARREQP
From the text: as §1

[4] = target: PAK5 (Homo sapiens, UniProt Q9P286); test: Kinase profiling PAK5
From the text: as §1

[5] = target: T3, EPH-B1 (Homo sapiens, UniProt P54762); test: Kinase profiling EPH-B1
T3 sequence (P54762 18-984): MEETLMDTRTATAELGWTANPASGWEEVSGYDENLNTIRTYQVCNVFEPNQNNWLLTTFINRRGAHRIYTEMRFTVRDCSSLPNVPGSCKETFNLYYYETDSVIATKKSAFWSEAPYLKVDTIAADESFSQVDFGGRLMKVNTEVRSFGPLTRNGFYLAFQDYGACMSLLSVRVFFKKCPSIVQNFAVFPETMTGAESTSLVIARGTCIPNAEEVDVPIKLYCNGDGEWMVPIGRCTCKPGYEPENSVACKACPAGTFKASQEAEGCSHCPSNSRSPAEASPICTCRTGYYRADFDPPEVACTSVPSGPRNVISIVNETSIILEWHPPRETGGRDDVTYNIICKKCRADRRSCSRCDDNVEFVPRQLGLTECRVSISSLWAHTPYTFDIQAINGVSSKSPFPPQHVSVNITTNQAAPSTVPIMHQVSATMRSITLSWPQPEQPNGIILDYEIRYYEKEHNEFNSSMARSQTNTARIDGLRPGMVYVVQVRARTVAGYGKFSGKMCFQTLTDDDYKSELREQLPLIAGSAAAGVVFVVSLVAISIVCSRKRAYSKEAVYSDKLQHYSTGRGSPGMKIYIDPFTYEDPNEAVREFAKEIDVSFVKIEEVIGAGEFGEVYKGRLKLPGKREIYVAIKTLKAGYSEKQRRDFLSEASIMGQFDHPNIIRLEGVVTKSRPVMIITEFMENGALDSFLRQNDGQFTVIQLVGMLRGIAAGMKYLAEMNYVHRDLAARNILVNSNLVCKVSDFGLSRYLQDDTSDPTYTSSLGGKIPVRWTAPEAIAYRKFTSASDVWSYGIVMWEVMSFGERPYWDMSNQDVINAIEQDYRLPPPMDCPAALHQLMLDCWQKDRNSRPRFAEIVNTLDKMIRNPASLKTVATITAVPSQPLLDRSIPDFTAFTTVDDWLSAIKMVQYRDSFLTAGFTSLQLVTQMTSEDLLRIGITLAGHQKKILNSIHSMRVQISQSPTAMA
From the text: as §1

[6] = target: PAK2 (Homo sapiens, UniProt Q13177); test: Kinase profiling PAK2
From the text: as §1

[7] = target: CSK (Homo sapiens, UniProt P41240); test: Kinase profiling CSK
From the text: as §1

PAK5, sequence (Q9P286 whole entry): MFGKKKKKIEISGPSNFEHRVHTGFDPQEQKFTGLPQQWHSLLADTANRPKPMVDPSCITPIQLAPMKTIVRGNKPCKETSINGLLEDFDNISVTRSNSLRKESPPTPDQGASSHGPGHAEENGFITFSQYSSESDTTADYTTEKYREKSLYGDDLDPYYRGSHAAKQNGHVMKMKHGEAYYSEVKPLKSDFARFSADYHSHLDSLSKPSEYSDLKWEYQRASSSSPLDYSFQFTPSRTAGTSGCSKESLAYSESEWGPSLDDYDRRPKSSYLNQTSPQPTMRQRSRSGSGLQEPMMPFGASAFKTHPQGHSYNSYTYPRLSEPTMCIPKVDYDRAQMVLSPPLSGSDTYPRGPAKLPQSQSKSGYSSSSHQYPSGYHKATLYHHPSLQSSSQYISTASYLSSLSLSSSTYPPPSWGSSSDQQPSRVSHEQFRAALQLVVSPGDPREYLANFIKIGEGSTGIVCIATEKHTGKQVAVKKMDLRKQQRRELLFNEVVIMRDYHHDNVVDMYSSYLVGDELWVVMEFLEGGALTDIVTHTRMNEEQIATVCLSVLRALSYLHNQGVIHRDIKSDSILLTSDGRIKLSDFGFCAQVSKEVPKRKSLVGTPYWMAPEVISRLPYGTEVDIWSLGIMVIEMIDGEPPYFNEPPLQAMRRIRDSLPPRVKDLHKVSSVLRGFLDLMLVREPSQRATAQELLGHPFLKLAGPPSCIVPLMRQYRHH
PAK2, sequence (Q13177 whole entry, species assumed): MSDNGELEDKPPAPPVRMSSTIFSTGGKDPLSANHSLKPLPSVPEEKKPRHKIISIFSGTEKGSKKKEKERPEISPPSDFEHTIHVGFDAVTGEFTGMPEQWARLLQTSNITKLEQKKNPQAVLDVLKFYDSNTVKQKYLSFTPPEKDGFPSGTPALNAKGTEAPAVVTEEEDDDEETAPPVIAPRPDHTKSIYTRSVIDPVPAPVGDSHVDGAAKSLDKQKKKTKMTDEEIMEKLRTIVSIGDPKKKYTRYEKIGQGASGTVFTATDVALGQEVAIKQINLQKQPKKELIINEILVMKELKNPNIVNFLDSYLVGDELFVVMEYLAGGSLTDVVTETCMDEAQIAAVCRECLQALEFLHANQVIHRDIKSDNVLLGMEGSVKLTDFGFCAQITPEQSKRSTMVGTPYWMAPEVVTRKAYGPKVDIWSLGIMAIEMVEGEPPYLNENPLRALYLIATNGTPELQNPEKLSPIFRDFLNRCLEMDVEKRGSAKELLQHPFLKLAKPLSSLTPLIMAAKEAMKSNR
FGF-R1, sequence (P11362 22-822, species assumed): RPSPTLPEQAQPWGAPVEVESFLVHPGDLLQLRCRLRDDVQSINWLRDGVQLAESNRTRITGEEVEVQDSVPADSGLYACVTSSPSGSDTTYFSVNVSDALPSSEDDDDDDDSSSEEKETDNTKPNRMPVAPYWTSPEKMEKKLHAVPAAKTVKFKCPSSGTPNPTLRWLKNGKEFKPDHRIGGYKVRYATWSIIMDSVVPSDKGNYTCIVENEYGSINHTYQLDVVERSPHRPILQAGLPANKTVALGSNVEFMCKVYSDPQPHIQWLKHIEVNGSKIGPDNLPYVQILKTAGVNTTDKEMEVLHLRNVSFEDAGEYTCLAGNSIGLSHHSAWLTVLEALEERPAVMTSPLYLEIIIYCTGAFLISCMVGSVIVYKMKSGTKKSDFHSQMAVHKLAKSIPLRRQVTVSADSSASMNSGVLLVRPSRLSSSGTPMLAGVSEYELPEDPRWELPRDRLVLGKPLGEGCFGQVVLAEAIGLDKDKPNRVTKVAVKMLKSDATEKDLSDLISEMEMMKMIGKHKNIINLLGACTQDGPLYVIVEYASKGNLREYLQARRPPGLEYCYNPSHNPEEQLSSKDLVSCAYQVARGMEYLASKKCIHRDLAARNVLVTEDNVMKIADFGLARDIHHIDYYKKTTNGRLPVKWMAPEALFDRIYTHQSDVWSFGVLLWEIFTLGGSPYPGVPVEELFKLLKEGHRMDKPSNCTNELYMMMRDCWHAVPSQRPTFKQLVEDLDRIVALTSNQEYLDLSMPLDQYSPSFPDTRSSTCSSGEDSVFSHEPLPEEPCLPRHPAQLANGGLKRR
CSK, sequence (P41240 whole entry, species assumed): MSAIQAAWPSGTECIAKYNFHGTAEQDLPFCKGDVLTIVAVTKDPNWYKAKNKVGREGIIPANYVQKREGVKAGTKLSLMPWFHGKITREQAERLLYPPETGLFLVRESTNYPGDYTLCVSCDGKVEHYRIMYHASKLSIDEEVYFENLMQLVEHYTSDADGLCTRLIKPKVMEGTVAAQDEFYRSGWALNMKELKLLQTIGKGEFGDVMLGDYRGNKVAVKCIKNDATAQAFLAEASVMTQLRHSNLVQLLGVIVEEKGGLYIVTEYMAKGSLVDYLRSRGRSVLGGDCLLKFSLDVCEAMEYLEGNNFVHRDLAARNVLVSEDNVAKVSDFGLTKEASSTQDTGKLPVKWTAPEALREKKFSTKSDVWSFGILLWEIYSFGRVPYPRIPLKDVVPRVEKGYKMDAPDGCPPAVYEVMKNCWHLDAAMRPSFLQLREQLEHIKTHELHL

In the case of `CC(=O)Nc1nc2cc(C)ccc2s1` [Compound 03-76], the “residual kinase activity, EPH-B3” value [1] was 107, the “residual kinase activity, FGF-R1” value [2] was 106 and the “residual kinase activity, BRSK2” value [3] was 79. The “residual kinase activity, PAK5” value [4] was 107, the “residual kinase activity, EPH-B1” value [5] was 103 and the “residual kinase activity, PAK2” value [6] was 102. The “residual kinase activity, CSK” value [7] was 101.
Work on `CC(=O)Nc1nc2cc(F)ccc2s1` [Compound 03-77] yielded a remaining activity at 100 µM ([1]; read-out: residual kinase activity, EPH-B3) of 113%, a remaining activity at 100 µM ([2]; read-out: residual kinase activity, FGF-R1) of 103% and a remaining activity at 100 µM ([3]; read-out: residual kinase activity, BRSK2) of 77%. It also gave a remaining activity at 100 µM ([4]; read-out: residual kinase activity, PAK5) of 111%, a remaining activity at 100 µM ([5]; read-out: residual kinase activity, EPH-B1) of 103% and a remaining activity at 100 µM ([6]; read-out: residual kinase activity, PAK2) of 11%. For the same compound, the remaining activity at 100 µM ([7]; read-out: residual kinase activity, CSK) was 98%.
For `O=C(Nc1nc2ccc(O)cc2s1)c1ccncc1` [Compound 08-42], the “residual kinase activity, EPH-B3” value [1] was 88, the “residual kinase activity, FGF-R1” value [2] was 54 and the “residual kinase activity, BRSK2” value [3] was 74. The “residual kinase activity, PAK5” value [4] was 79, the “residual kinase activity, EPH-B1” value [5] was 93 and the “residual kinase activity, PAK2” value [6] was 108. For the same compound, the “residual kinase activity, CSK” value [7] was 89.
`O=C(Nc1nc2ccc(O)cc2s1)c1cccnc1` [Compound 08-44] was tested, and the “residual kinase activity, EPH-B3” value [1] was 65, the “residual kinase activity, FGF-R1” value [2] was 56 and the “residual kinase activity, BRSK2” value [3] was 52. For the same compound, the “residual kinase activity, PAK5” value [4] was 88, the “residual kinase activity, EPH-B1” value [5] was 93 and the “residual kinase activity, PAK2” value [6] was 85. For the same compound, the “residual kinase activity, CSK” value [7] was 83.
